{"source": "paper PMC10746543", "about": "“Design principles for cyclin K molecular glue degraders” (Nature Chemical Biology, 2023)", "key": {"[1]": {"biological_target": "T1, CDK2–cyclin A (Homo sapiens, UniProt P24941)", "T1 construct": "purchased Thermo Fisher", "assay": "Lanthascreen kinase binding assay, CDK2", "description": "(§1) Lanthascreen experiments were performed using commercially available reagents (Thermo Fisher) and according to the manufacturer’s instructions."}, "[2]": {"tested_on": "cyclin K–eGFP degradation reporter", "assay": "Cyclin K reporter stability analysis (dual-color cyclin K–eGFP reporter)", "format": "cell-based, human", "summary_of_the_method": "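Readout was the eGFP-to-mCherry geometric-mean ratio by flow cytometry, normalized to three DMSO controls, after 5 h drug exposure. Cells used were HEK293T–Cas9 expressing the dual-colour cyclin K–eGFP degradation reporter.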"}, "[3]": {"biological_target": "T2, CDK13 (Homo sapiens, UniProt Q14004+Q16531)", "T2 construct": "endogenous in cells; host or cells: MDA-MB-231", "T2 sequence (Q14004 whole entry)": "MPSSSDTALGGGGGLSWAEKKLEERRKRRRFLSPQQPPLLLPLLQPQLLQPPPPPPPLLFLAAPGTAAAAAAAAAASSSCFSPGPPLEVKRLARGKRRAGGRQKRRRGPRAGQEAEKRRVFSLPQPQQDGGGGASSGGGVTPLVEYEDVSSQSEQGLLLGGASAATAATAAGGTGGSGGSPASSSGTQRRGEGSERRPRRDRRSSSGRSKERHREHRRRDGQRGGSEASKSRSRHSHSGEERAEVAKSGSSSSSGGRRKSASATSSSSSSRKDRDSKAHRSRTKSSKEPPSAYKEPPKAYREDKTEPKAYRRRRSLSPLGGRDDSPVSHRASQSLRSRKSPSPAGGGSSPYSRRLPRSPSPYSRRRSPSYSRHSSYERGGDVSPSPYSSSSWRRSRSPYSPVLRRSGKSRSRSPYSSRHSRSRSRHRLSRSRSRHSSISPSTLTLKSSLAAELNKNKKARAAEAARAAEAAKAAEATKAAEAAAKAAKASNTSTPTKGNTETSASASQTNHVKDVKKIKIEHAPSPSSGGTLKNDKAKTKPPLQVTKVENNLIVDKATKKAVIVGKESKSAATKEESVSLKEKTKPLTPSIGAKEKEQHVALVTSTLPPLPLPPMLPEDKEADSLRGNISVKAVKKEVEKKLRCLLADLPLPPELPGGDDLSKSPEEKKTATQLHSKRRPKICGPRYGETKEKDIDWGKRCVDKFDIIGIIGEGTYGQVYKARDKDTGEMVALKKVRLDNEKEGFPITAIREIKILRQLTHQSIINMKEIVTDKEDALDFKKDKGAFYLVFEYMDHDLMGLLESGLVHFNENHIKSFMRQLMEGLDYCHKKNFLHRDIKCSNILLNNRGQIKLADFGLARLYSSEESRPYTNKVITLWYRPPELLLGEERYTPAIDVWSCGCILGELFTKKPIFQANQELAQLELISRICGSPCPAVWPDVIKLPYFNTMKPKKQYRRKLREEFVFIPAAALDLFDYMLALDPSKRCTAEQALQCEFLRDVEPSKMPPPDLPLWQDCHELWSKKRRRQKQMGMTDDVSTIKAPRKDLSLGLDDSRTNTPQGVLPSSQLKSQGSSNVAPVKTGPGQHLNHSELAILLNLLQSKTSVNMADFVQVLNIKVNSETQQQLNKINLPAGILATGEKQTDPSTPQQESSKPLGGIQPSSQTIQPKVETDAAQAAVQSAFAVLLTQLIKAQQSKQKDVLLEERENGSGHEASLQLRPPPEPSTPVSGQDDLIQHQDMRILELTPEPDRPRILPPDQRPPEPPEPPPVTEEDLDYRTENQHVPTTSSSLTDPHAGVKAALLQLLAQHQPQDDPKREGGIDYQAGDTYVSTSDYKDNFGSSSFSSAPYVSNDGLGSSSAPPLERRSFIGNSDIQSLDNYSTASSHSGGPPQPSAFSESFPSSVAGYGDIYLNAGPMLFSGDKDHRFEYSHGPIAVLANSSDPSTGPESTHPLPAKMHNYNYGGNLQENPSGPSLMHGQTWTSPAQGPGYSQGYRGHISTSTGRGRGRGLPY", "T2 sequence (O75909 whole entry partner)": "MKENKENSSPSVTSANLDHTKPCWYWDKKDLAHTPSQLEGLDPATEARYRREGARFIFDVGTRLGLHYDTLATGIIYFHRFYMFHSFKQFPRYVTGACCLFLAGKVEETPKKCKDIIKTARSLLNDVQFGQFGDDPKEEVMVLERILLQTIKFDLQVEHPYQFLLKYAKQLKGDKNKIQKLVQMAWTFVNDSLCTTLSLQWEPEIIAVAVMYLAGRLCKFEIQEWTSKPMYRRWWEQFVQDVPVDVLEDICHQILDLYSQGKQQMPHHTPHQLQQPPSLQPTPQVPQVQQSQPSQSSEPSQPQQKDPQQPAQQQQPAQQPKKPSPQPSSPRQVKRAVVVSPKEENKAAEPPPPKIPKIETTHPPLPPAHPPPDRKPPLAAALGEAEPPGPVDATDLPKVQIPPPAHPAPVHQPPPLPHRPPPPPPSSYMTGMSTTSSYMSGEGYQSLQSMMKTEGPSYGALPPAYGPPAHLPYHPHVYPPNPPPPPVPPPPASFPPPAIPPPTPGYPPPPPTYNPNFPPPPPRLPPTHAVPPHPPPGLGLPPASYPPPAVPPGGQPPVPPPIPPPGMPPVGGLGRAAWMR", "T2 sequence (Q16531 2-1140 limits assumed)": "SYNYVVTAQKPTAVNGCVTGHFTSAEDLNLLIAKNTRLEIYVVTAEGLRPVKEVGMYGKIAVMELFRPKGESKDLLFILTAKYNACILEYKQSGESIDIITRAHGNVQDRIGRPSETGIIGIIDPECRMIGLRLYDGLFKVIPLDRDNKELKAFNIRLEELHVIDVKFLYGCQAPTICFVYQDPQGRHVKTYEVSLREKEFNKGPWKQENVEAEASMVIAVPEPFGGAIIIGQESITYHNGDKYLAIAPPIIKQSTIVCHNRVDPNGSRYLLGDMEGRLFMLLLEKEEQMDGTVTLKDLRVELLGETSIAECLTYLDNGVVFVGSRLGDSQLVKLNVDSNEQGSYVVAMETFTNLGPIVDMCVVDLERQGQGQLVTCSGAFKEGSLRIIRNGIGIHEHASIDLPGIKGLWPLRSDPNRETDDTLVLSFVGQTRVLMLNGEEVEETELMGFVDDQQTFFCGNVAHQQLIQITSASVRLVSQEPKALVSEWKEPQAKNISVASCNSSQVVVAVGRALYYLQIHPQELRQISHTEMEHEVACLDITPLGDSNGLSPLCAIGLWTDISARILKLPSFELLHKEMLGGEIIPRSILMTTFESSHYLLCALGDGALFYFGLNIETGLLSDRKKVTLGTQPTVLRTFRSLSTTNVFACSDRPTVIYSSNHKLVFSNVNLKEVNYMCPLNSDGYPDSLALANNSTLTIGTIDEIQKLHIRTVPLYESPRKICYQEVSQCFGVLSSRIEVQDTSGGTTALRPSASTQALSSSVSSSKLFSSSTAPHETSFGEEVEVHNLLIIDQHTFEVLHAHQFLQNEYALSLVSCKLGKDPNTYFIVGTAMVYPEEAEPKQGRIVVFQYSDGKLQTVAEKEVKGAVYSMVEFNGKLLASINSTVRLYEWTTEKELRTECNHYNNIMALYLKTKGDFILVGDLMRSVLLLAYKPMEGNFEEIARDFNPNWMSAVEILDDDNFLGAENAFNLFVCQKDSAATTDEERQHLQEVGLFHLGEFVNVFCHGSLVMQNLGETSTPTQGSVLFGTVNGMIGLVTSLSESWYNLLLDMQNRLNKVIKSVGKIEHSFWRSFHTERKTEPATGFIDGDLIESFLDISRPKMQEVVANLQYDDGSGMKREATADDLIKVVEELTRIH", "assay": "Label-free quantitative mass spectrometry in MDA-MB-231 cells, CDK13", "format": "cell-based", "summary_of_the_method": "(§2)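 MDA-MB-231 cells treated 5 h with 1 µM cyclin K degrader or DMSO. Lysates digested with LysC and trypsin, then analysed by label-free diaPASEF LC-MS on a TimsTOF Pro2 with directDIA search and MS1 precursor quantification. Protein abundances scaled and analysed with limma.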"}, "[4]": {"tested_on": "cyclin K", "assay": "Label-free quantitative mass spectrometry in MDA-MB-231 cells, cyclin K", "format": "cell-based, human", "summary_of_the_method": "as §2"}, "[5]": {"biological_target": "T3, CDK9–cyclin T (Homo sapiens, UniProt P50750)", "T3 construct": "purchased Thermo Fisher", "T3 sequence (P50750 whole entry)": "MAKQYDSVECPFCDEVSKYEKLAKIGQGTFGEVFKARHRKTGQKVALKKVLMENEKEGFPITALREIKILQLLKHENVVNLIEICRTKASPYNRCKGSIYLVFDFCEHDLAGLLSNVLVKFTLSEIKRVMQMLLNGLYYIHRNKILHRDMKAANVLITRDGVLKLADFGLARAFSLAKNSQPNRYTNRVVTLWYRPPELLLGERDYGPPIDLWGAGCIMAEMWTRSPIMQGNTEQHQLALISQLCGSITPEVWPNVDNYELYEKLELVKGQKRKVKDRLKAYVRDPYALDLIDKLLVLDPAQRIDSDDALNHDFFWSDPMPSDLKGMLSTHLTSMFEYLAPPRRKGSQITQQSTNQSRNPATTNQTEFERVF", "T3 sequence (O60563 whole entry partner)": "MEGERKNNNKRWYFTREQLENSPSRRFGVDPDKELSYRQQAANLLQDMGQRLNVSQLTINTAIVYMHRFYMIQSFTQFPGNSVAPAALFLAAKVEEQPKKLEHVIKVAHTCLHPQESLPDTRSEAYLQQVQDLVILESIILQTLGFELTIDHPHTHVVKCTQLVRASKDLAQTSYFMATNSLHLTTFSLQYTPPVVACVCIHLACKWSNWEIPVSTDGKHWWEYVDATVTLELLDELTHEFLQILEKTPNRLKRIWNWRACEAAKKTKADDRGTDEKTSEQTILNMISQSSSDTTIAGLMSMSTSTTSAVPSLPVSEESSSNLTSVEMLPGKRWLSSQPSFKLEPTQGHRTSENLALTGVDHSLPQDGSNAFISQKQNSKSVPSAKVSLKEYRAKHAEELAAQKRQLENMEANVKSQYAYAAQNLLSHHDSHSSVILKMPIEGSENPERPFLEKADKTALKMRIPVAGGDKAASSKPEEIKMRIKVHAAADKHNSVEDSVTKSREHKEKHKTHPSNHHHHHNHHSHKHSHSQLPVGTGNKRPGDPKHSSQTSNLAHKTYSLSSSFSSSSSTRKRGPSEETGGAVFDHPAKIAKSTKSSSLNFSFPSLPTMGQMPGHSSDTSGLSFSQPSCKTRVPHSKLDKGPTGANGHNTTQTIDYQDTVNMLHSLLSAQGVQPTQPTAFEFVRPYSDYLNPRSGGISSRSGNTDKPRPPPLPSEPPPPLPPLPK", "assay": "Lanthascreen kinase binding assay, CDK9", "conditions": "Supplementary Table 2; read-out: Lanthascreen IC50 [nM] CDK9", "description": "as §1"}, "[6]": {"conditions": "label-free quantitative MS, replicate values"}, "[7]": {"conditions": "normalised to DMSO = 1, replicate values"}}, "note": "Where “and” joins values, the source holds several entries; their conditions need not be identical. Equal values may be shown once. Read-outs that look alike come from different tables or passages of the source."}
{"compound": "Cn1cc(-n2cnc3c(NCc4nc5cc(Cl)c(Cl)cc5[nH]4)nc(N4CCOCC4)nc32)cn1", "note": "[SR-4835]", "values": [{"measurement": "Lanthascreen signal, sheet CDK2", "setting": "[1]; Compound 0.038147 nM, raw replicates, experiment r13-r23", "value": "0.0127 and 0.01284"}, {"measurement": "Lanthascreen signal, sheet CDK2", "setting": "[1]; Compound 0.038147 nM, raw replicates, experiment r36-r46", "value": "0.01329 and 0.01256"}, {"measurement": "Lanthascreen signal, sheet CDK2", "setting": "[1]; Compound 0.038147 nM, raw replicates, experiment r48-r58", "value": "0.01292 and 0.01236"}, {"measurement": "Lanthascreen signal, sheet CDK2", "setting": "[1]; Compound 0.152588 nM, raw replicates, experiment r13-r23", "value": "0.01305 and 0.01264"}, {"measurement": "Lanthascreen signal, sheet CDK2", "setting": "[1]; Compound 0.152588 nM, raw replicates, experiment r36-r46", "value": "0.01299 and 0.01282"}, {"measurement": "Lanthascreen signal, sheet CDK2", "setting": "[1]; Compound 0.152588 nM, raw replicates, experiment r48-r58", "value": "0.01645 and 0.0151"}, {"measurement": "Lanthascreen signal, sheet CDK2", "setting": "[1]; Compound 0.610352 nM, raw replicates, experiment r13-r23", "value": "0.01296 and 0.01232"}, {"measurement": "Lanthascreen signal, sheet CDK2", "setting": "[1]; Compound 0.610352 nM, raw replicates, experiment r36-r46", "value": "0.01373 and 0.01242"}, {"measurement": "Lanthascreen signal, sheet CDK2", "setting": "[1]; Compound 0.610352 nM, raw replicates, experiment r48-r58", "value": "0.01563 and 0.01504"}, {"measurement": "Lanthascreen signal, sheet CDK2", "setting": "[1]; Compound 1.02544 nM, raw replicates, experiment r1-r11", "value": "0.01131 and 0.01009"}, {"measurement": "Lanthascreen signal, sheet CDK2", "setting": "[1]; Compound 3.15521 nM, raw replicates, experiment r1-r11", "value": "0.009228 and 0.009357"}, {"measurement": "Lanthascreen signal, sheet CDK2", "setting": "[1]; Compound 4.57247 nM, experiment r25-r34", "value": 0.01614}, {"measurement": "Lanthascreen signal, sheet CDK2", "setting": "[1]; Compound 9.76563 nM, raw replicates, experiment r13-r23", "value": "0.01326 and 0.01312"}, {"measurement": "Lanthascreen signal, sheet CDK2", "setting": "[1]; Compound 9.76563 nM, raw replicates, experiment r36-r46", "value": "0.01252 and 0.01318"}, {"measurement": "Lanthascreen signal, sheet CDK2", "setting": "[1]; Compound 9.76563 nM, raw replicates, experiment r48-r58", "value": "0.01463 and 0.01476"}, {"measurement": "Lanthascreen signal, sheet CDK2", "setting": "[1]; Compound 9.76563 nM, raw replicates, experiment r60-r70", "value": "0.02088 and 0.02079 and 0.02078"}, {"measurement": "Lanthascreen signal, sheet CDK2", "setting": "[1]; Compound 13.7174 nM, experiment r25-r34", "value": 0.01619}, {"measurement": "Lanthascreen signal, sheet CDK2", "setting": "[1]; Compound 39.0625 nM, raw replicates, experiment r13-r23", "value": "0.01273 and 0.01299"}, {"measurement": "Lanthascreen signal, sheet CDK2", "setting": "[1]; Compound 39.0625 nM, raw replicates, experiment r36-r46", "value": "0.01285 and 0.01213"}, {"measurement": "Lanthascreen signal, sheet CDK2", "setting": "[1]; Compound 39.0625 nM, raw replicates, experiment r48-r58", "value": "0.01551 and 0.01552"}, {"measurement": "Lanthascreen signal, sheet CDK2", "setting": "[1]; Compound 39.0625 nM, raw replicates, experiment r60-r70", "value": "0.01951 and 0.02081 and 0.02075"}, {"measurement": "Lanthascreen signal, sheet CDK2", "setting": "[1]; Compound 41.1523 nM, experiment r25-r34", "value": 0.01684}, {"measurement": "Lanthascreen signal, sheet CDK2", "setting": "[1]; Compound 123.457 nM, experiment r25-r34", "value": 0.01665}, {"measurement": "Lanthascreen signal, sheet CDK2", "setting": "[1]; Compound 156.25 nM, raw replicates, experiment r13-r23", "value": "0.01317 and 0.01374"}, {"measurement": "Lanthascreen signal, sheet CDK2", "setting": "[1]; Compound 156.25 nM, raw replicates, experiment r36-r46", "value": "0.01372 and 0.0133"}, {"measurement": "Lanthascreen signal, sheet CDK2", "setting": "[1]; Compound 156.25 nM, raw replicates, experiment r48-r58", "value": "0.01549 and 0.01505"}, {"measurement": "Lanthascreen signal, sheet CDK2", "setting": "[1]; Compound 156.25 nM, raw replicates, experiment r60-r70", "value": "0.01961 and 0.02092 and 0.0201"}, {"measurement": "Lanthascreen signal, sheet CDK2", "setting": "[1]; Compound 370.37 nM, experiment r25-r34", "value": 0.01637}, {"measurement": "Lanthascreen signal, sheet CDK2", "setting": "[1]; Compound 625 nM, raw replicates, experiment r13-r23", "value": "0.0132 and 0.01347"}, {"measurement": "Lanthascreen signal, sheet CDK2", "setting": "[1]; Compound 625 nM, raw replicates, experiment r36-r46", "value": "0.01352 and 0.01293"}, {"measurement": "Lanthascreen signal, sheet CDK2", "setting": "[1]; Compound 625 nM, raw replicates, experiment r48-r58", "value": "0.01526 and 0.01348"}, {"measurement": "Lanthascreen signal, sheet CDK2", "setting": "[1]; Compound 625 nM, raw replicates, experiment r60-r70", "value": "0.01884 and 0.01787 and 0.01937"}, {"measurement": "Lanthascreen signal, sheet CDK2", "setting": "[1]; Compound 2500 nM, raw replicates, experiment r13-r23", "value": "0.01229 and 0.01217"}, {"measurement": "Lanthascreen signal, sheet CDK2", "setting": "[1]; Compound 2500 nM, raw replicates, experiment r36-r46", "value": "0.01331 and 0.01286"}, {"measurement": "Lanthascreen signal, sheet CDK2", "setting": "[1]; Compound 2500 nM, raw replicates, experiment r48-r58", "value": "0.01476 and 0.01465"}, {"measurement": "Lanthascreen signal, sheet CDK2", "setting": "[1]; Compound 2500 nM, raw replicates, experiment r60-r70", "value": "0.01706 and 0.01739 and 0.01756"}, {"measurement": "Lanthascreen signal, sheet CDK2", "setting": "[1]; Compound 3155.21 nM, raw replicates, experiment r1-r11", "value": "0.009677 and 0.009716"}, {"measurement": "Lanthascreen signal, sheet CDK2", "setting": "[1]; Compound 3333.33 nM, experiment r25-r34", "value": 0.01493}, {"measurement": "Lanthascreen signal, sheet CDK2", "setting": "[1]; Compound 10000 nM, experiment r25-r34", "value": 0.01253}, {"measurement": "Lanthascreen signal, sheet CDK2", "setting": "[1]; Compound 10000 nM, raw replicates, experiment r13-r23", "value": "0.01083 and 0.01088"}, {"measurement": "Lanthascreen signal, sheet CDK2", "setting": "[1]; Compound 10000 nM, raw replicates, experiment r36-r46", "value": "0.01118 and 0.01139"}, {"measurement": "Lanthascreen signal, sheet CDK2", "setting": "[1]; Compound 10000 nM, raw replicates, experiment r48-r58", "value": "0.01493 and 0.01454"}, {"measurement": "Lanthascreen signal, sheet CDK2", "setting": "[1]; Compound 10000 nM, raw replicates, experiment r60-r70", "value": "0.01597 and 0.01433 and 0.01526"}, {"measurement": "Lanthascreen signal, sheet CDK2", "setting": "[1]; Compound 10002 nM, raw replicates, experiment r1-r11", "value": "0.009692 and 0.009444"}, {"measurement": "IC50", "setting": "[1]; Lanthascreen, average, Extended Data Fig. 8, read-out: CDK2 IC50", "value": "> 10000", "unit": "nM"}, {"measurement": "IC50", "setting": "[1]; Supplementary Table 2, read-out: Lanthascreen IC50 [nM] CDK2", "value": "> 10000", "unit": "nM"}, {"measurement": "DC50", "setting": "[2]; Supplementary Fig. 4, HEK293T cycKeGFP reporter, 5h, n=2, read-out: DC50 printed on reporter plot", "value": 0.039, "unit": "µM"}, {"measurement": "DC50", "setting": "[2]; source data sheet correlations, read-out: DC50", "value": 0.014, "unit": "µM"}, {"measurement": "CDK13 peptide count", "setting": "[3]; [6]", "value": "281.229 and 215.265"}, {"measurement": "CDK13 peptide count (DMSO-normalised)", "setting": "[3]; [7]", "value": "0.4184 and 0.3308"}, {"measurement": "cyclin K depletion, result in words", "setting": "[4]; MDA-MB-231 cells, 1 µM, 5 h", "value": "more effective at depleting cyclin K than CR8"}, {"measurement": "cyclin K abundance (label-free MS)", "setting": "[4]; individual replicates, sheet EDF7", "value": "69.2958 and 61.7731"}, {"measurement": "cyclin K abundance (label-free MS)", "setting": "[4]; [6]", "value": "69.2958 and 61.7731"}, {"measurement": "CCNK peptide count (DMSO-normalised)", "setting": "[4]; [7]", "value": "0.03786 and 0.03436"}, {"measurement": "average CCNK peptide count", "setting": "[4]; sheet EDF7", "value": 65.5345}, {"measurement": "IC50", "setting": "[5]", "value": 3660, "unit": "nM"}]}
